Source: paper PMC6381024, “Probing Anti-inflammatory Properties Independent of NF-κB Through Conformational Constraint of Peptide-Based Interleukin-1 Receptor Biased Ligands” (Frontiers in Chemistry, 2019)

What was measured:
[1] = test system: retinal microglia; test: Retinal microglial activation and density (Iba-1 staining) in the OIR model; type: in vivo; details: OIR rat pups, 2 mg/kg/day i.p.; for Effect on microglial activation / morphology: Iba-1 immunohistochemistry
From the text: On P5, litters were transferred to a controlled hyperoxic environment (Biospherix OxyCycler A84XOV) and maintained at 80 ± 1% O2, which is used to induce vaso-obliteration of the retinal vasculature. At this timepoint, the vasculature is immature and particularly susceptible to […] insults resulting in vaso-obliteration, a defining characteristic of the early stage of retinopathies in premature infants (Garner and Ashton, [1971]). Control litters were not exposed to hyperoxia and were kept in standard conditions with room air (21% O2). To control for the effects of hyperoxia on the lactation of the dams, dams of hyperoxic litters were switched with dams of control litters on P8.
In litters exposed to hyperoxia, pups were randomized to receive phosphate-buffered saline (PBS) vehicle, 2 mg/kg/day of peptides 1, 5, or 6 or 3 mg/kg/day of Kineret from P5 to P10. These doses were determined from our previous study (Rivera et al., [2013]) and administered in twice-daily intra-peritoneal injections titrated to 20 μL per injection with 28-gauge insulin syringes. A total of 6–8 pups were used for each treatment group.
Retinas were treated at room temperature for 1 h with a blocking solution consisting of 1% bovine serum albumin (BSA), 1% normal goat serum, 0.1% Triton X-100 and 0.05% Tween-20 in PBS. The retinas were then double-labeled overnight at 4°C with gentle shaking in an antibody solution consisting of 1 mM CaCl2, 1% Triton X-100, 1% TRITC-conjugated lectin cell endothelial marker from Bandeiraea simplicifolia (Sigma-Aldrich, St Louis, MO) and a 1:500 dilution of rabbit anti-ionized calcium-binding adapter molecule (Iba)-1 antibody (Wako Chemicals USA) in PBS. The retinas were then washed thrice with PBS and incubated with a secondary antibody solution consisting of 1% BSA, 0.1% Triton X-100, 0.05% Tween-20 and 1:500 Alexa-594-conjugated donkey anti-rabbit IgG (ThermoFisher Scientific, Rockford, IL) in PBS for 2 h at room temperature. Retinas were washed thrice with PBS and then flat-mounted onto glass slides with coverslips and Fluoro-Gel mounting medium (Electron Microscopy Sciences, Hatfield, PA).
For assessment of vaso-obliteration, retinas were imaged using an epifluorescence microscope at 10X magnification (Zeiss AxioImager Z2) and version 4.8 of the AxioVision software. Images were captured and stitched together using the software's MosaiX feature. Iba-1 staining was assessed with the same microscope at 20X magnification, and a total of 4 fields per retina were imaged halfway between the optic nerve and the edge of the retina.
Representative images of Iba-1 staining were taken using a laser scanning confocal microscope (Olympus IX81 with Fluoview FV1000 Scanhead) with the Fluoview Software at 30X magnification.
The FIJI software was used to the quantify the area of vaso-obliteration in each retina, expressed as a percentage of the area of the whole retina. The number of Iba-1-positive cells was counted using the cell counter plug-in in FIJI, and the average of cell counts in 4 fields per retina was calculated.
Figure 11 The effects of peptides 1, 5, and 6 on retinal microglial activation and density. Retinas were obtained for immunohistochemistry from rat pups treated with the OIR protocol, and incubated with rabbit anti-iba-1 antibody, followed by donkey anti-rabbit antibody conjugated to Alexa 594. (A) Representative confocal images of retinal microglia at 30X magnification: scale bar 100 μm. (B) Epifluorescence microscopy images at 20 × magnification of retinal microglial density quantified using ImageJ: 4 images per retina were taken at a distance halfway between the optic nerve and the peripheral edge of the retina; n = 5–7 for peptide 1, 5, and 6, and Kineret; n = 8–10 for normoxia and vehicle; ^*p < 0.05, ^****p < 0.0001 relative to the vehicle group. Treatment groups that are not labeled with asterisks are statistically non-significant compared to the vehicle group.

[2] = test system: thymocyte TF-1 proliferation; details: ref Jamieson et al., 2009; Boutard et al., 2011; cited from earlier work
From the text: Conformational restriction of natural peptides has been used to identify active geometry and to enhance therapeutic potential by mitigating issues such as low oral availability and poor metabolic stability (Carney et al., [2014]; Rubin and Qvit, [2016]; Lubell, [2017]). Since pioneering studies by Freidinger and Veber, the application of Agl residues has proven effective for constraining the backbone sequence to favor β-turn geometry in various peptides (Freidinger et al., [1980], [1982]; Yu et al., [1988]; Zhang et al., [1996]; Aube, [1999]; Perdih and Kikelj, [2006]; Valle et al., [2009]). I ...

Substance | Effect on microglial activation / morphology [1] | Reduction of microglial density ([1]; Iba-1-positive cell counts) [%] | Inhibition of IL-1β-induced thymocyte TF-1 proliferation, compared to peptide 1 [2]
H-D-Arg-D-Tyr-(3S,4R)-Hgl-D-Val-D-Glu-D-Leu-D-Ala-NH2 [[(3S,4R)-Hgl^3]-1] | prevented partially the activation of microglia |  | 
H-D-Arg-D-Tyr-D-Thr-D-Val-D-Glu-D-Leu-D-Ala-NH2 [Peptide 1] | inactive and ramified |  | 
H-D-Arg-D-Tyr-(S)-Agl-D-Val-D-Glu-D-Leu-D-Ala-NH2 [[(3S)-Agl^3]-1] | no appreciable effect on microglial morphology | < 20 | 
H-D-Arg-D-Tyr-(R)-Agl-D-Val-D-Glu-D-Leu-D-Ala-NH2 [[(3R)-Agl^3]-1] | no appreciable effect on microglial morphology |  | significantly diminished activity
H-D-Arg-D-Tyr-(3R,4S)-Hgl-D-Val-D-Glu-D-Leu-D-Ala-NH2 [[(3R,4S)-Hgl^3]-1] | prevented partially the activation of microglia |  | 
